Laboratory results: ChEMBL document CHEMBL5247589, “Natural occurrence, bioactivity, and biosynthesis of triene-ansamycins” (Eur J Med Chem, 2022)
pEC50, pIC50: −log10 of the molar value. ≈ marks a conversion by molar mass, not a printed value.

What was measured:
[1] = tested on: Capan-2; test: Antitumor activity against human Capan-2 cells incubated for 48 to 72 hrs by MTS Assay; format: functional, cell-based
[2] = tested on: HepG2; test: Antitumor activity against human HepG2 cells incubated for 72 hrs by SRB calorimetric assay; format: functional, cell-based; conditions: HepG2, 72 h
[3] = tested on: PC-3; test: Antitumor activity against human PC-3 cells incubated for 72 hrs by SRB calorimetric assay; format: functional, cell-based; conditions: PC-3, 72 h
[4] = tested on: PANC-1; test: Antitumor activity against human PANC-1 cells incubated for 48 to 72 hrs by MTS Assay; format: functional, cell-based
[5] = tested on: BXPC-3; test: Antitumor activity against human BXPC-3 cells incubated for 48 to 72 hrs by MTS Assay; format: functional, cell-based
[6] = Inhibition of NO production in LPS stimulated mouse BV-2 cells measured after 24 hrs; format: functional, cell-based; conditions: BV-2, 24 h
[7] = tested on: HeLa; test: Antitumor activity against human HeLa cells assessed as cell growth inhibition incubated for 5 days by MTT assay; format: functional, cell-based; conditions: 120 h
[8] = tested on: Ca-Ski; test: Antitumor activity against human Ca-Ski cells assessed as cell growth inhibition incubated for 5 days by MTT assay; format: functional, cell-based; conditions: 120 h
[9] = tested on: HT-3; test: Antitumor activity against human HT-3 cells assessed as cell growth inhibition incubated for 5 days by MTT assay; format: functional, cell-based; conditions: HT-3, 120 h
[10] = tested on: SiHa; test: Antitumor activity against human SiHa cells assessed as cell growth inhibition incubated for 5 days by MTT assay; format: functional, cell-based; conditions: 120 h
[11] = tested on: C-33-A; test: Antitumor activity against human C-33-A cells assessed as cell growth inhibition incubated for 5 days by MTT assay; format: functional, cell-based; conditions: 120 h
[12] = tested on: A549; test: Antitumor activity against human A549 cells incubated for 72 hrs by MTT assay; format: functional, cell-based; conditions: A549, 72 h
[13] = tested on: MCF7; test: Antitumor activity against human MCF7 cells incubated for 72 hrs by MTT assay; format: functional, cell-based; conditions: MCF7, 72 h
[14] = tested on: K562; test: Antitumor activity against human K562 cells incubated for 24 hrs by CCK-8 assay; format: functional, cell-based; conditions: K562, 24 h
[15] = tested on: HCT-116; test: Antitumor activity against human HCT116 cells; format: functional, cell-based
[16] = tested on: HL-60; test: Antitumor activity against human HL60 cells; format: functional, cell-based
[17] = tested on: HT-29; test: Antitumor activity against human HT29 cells; format: functional, cell-based
[18] = tested on: U-937; test: Antitumor activity against human U937 cells; format: functional, cell-based
[19] = tested on: HeLa; test: Antitumor activity against human HeLa cells; format: functional, cell-based
[20] = tested on: THP-1; test: Antitumor activity against human THP1 cells; format: functional, cell-based
[21] = tested on: B16; test: Antitumor activity against mouse B-16 cells; format: functional, cell-based
[22] = Antiproliferative activity against human U87 cells overexpressing miR-9 assessed as cell viability incubated for 48 hrs by Cell Counting Kit-8 assay; format: functional, cell-based, U-87MG ATCC; conditions: U-87 MG
[23] = tested on: HepG2; test: Antiproliferative activity against human HepG2 cells assessed as cell viability incubated for 48 hrs by Cell Counting Kit-8 assay; format: functional, cell-based; conditions: HepG2, 48 h
[24] = tested on: PC-3; test: Antiproliferative activity against human PC3 cells assessed as cell viability incubated for 48 hrs by Cell Counting Kit-8 assay; format: functional, cell-based; conditions: PC-3, 48 h
[25] = tested on: PC-3; test: Antiproliferative activity against human PC-3 assessed as cell growth inhibition incubated for 48 hrs by Cell Counting Kit-8 assay; format: functional, cell-based; conditions: PC-3, 48 h
[26] = Antiproliferative activity against human U-87 MG assessed as cell growth inhibition incubated for 48 hrs by Cell Counting Kit-8 assay; format: functional, cell-based, U-87MG ATCC
[27] = tested on: HepG2; test: Antiproliferative activity against human HepG2 assessed as cell growth inhibition incubated for 48 hrs by Cell Counting Kit-8 assay; format: functional, cell-based; conditions: HepG2, 48 h
[28] = tested on: HL-60; test: Induction of apoptosis in human HL-60 cells assessed as effective dose; format: functional; conditions: read-out: ED50 (the source's name)
[29] = tested on: HL-60; test: Antitumor activity against human HL60 cells assessed as cell growth incubated for 1 day by MTT assay; format: functional, cell-based; conditions: HL-60, 24 h
[30] = Cytotoxicity against human WI-38 cells assessed as cell growth incubated for 1 day by MTT assay; format: toxicity, cell-based
[31] = tested on: Pyricularia oryzae; test: Antimicrobial activity against Pyricularia oryzae by agar dilution method; format: functional
[32] = Inhibition of bovine brain FTase; design: species or system Bos taurus

Molecule `CCCC(=O)N[C@H](C)C(=O)O[C@H]1C/C=C/C=C/C=C/[C@H](OC)CC(=O)Nc2cc(O)cc(c2)CC/C=C(/C)[C@H](O)[C@H]1C` has a pIC50 [1] of 5.69, a pIC50 [2] of 5.69 and a pIC50 [3] of 5.69. The pIC50 [4] was 5.69 and the pIC50 [5] was 5.69.

For `CO[C@H]1/C=C/C=C/C=C/C[C@H](O)[C@H](C)[C@@H](OC(=O)[C@@H](C)NC(=O)C2CCCCC2)/C(C)=C\CCc2cc(O)cc(c2)NC(=O)C1`, the pIC50 [1] was < 5.00, the pIC50 [4] was < 5.00 and the pIC50 [5] was < 5.00. For the same molecule, the pEC50 [6] was 6.53.

With `CO[C@H]1/C=C/C=C/C=C/C[C@H](OC(=O)[C@@H](C)NC(=O)C2CCCCC2)[C@H](C)[C@@H](O)/C(C)=C\CCC2=C(O)C(=O)C=C(NC(=O)C1)C2=O` the pIC50 [7] was 7.15, the pIC50 [8] was 7.15 and the pIC50 [9] was 7.15. For the same molecule, the pIC50 [10] was 7.15 and the pIC50 [11] was 7.15.

For `CO[C@H]1/C=C/C=C/C=C/C[C@H](OC(C)=O)[C@H](C)[C@@H](O)/C(C)=C\CCc2cc(O)cc(c2)NC(=O)C1`, the pIC50 [12] was < 5.00, the pIC50 [13] was < 5.00 and the pIC50 [14] was < 5.00.

For `CO[C@H]1/C=C/C=C/C=C/C[C@H](OC(=O)C2(NC(=O)C3=CCCCC3)CC2)[C@H](C)[C@@H](O)/C(C)=C\CCc2c(O)c(cc3c2SCC(=O)N3)NC(=O)C1`, the pIC50 [15] was 6.52, the pIC50 [16] was 6.52 and the pIC50 [17] was 6.52. The pIC50 [18] was 6.52, the pIC50 [19] was 6.52 and the pIC50 [20] was 6.52. It also gave a pIC50 [21] of 6.52.

For `CO[C@@H]1CC(=O)Nc2c(O)c3cc4c2[C@H]1[C@@H](/C=C/C=C/C[C@H](O)[C@H](C)[C@@H](OC(=O)[C@@H](C)NC(=O)C1CCCCC1)/C(C)=C\CC3)O4`, the pIC50 [22] was < 5.00, the pIC50 [23] was < 5.00 and the pIC50 [24] was < 5.00.

`CO[C@H]1/C=C/C=C/C=C/C[C@H](O)[C@H](C)[C@@H](OC(=O)[C@@H](C)NC(=O)C2CCCCC2)/C(C)=C\CCC2=C(O)C(=O)C=C(NC(=O)C1)C2=O` showed a pIC50 [7] of 6.35, a pIC50 [8] of 6.35 and a pIC50 [9] of 6.35. The pIC50 [10] was 6.35 and the pIC50 [11] was 6.35.

In the case of `CO[C@@H]1CC(=O)Nc2c(O)c3cc4c2[C@H]1[C@@H](/C=C/C=C/C[C@H](OC(=O)[C@@H](C)NC(=O)C1CCCCC1)[C@H](C)[C@@H](O)/C(C)=C\CC3)O4`, the pIC50 [25] was 5.66, the pIC50 [26] was 5.15 and the pIC50 [27] was 6.21.

For `CO[C@H]1/C=C/C=C/C=C/C[C@H](OC(=O)C2(NC(=O)C3=CCCCC3)CC2)[C@H](C)[C@@H](O)/C(C)=C\CCc2cc(O)cc(c2O)NC(=O)C1`, the pEC50 [28] was 5.11, the pIC50 [29] was 8.11 and the IC50 at 1 day [30] was 7.7 nM. For the same molecule, the MIC [31] was 12.5 µg/mL (≈ 19.3 µM).

With `CO[C@H]1/C=C/C=C/C=C/C[C@H](OC(=O)[C@@H](C)NC(=O)C2=CCCCC2)[C@H](C)[C@@H](O)/C(C)=C\CCc2cc(O)cc(c2O)NC(=O)C1` the IC50 [32] was 1.2 µg/mL (≈ 1.88 µM).
